# Assay results: article PMC7876056, “Population Pharmacokinetic Analysis of Yimitasvir in Chinese Healthy Volunteers and Patients With Chronic Hepatitis C Virus Infection” (Frontiers in Pharmacology, 2021)
# Where two headings read alike, the source gives them in different places.
# How the values were obtained:
# [1] = rats; cited from earlier work
# CYP 2C9 = details: cited from earlier work
# CYP3A4 = details: cited from earlier work
# [2] = monkeys; cited from earlier work
# CYP 3A4 = details: cited from earlier work
# [3] = cited from earlier work
# P-glycoprotein (P-gp) = details: cited from earlier work
# [4] = mice; cited from earlier work
# [5] = tested on: cytochrome P450 (CYP) 2C8; details: cited from earlier work
# [6] = humans; cited from earlier work
# CYP 1A2 = details: cited from earlier work
# [7] = parameters: method as in Zhang et al., 2018; details: patients, ref Zhang et al., 2018, cited from earlier work
# CYP 2B6 = details: cited from earlier work
# CYP 2C19 = details: cited from earlier work
# human plasma proteins = details: independent of drug concentration over 100–2000 ng ml^−1; cited from earlier work
# [8] = Simulation of steady state exposure from the final population PK model (sensitive plot); type: in vivo, human; details: for AUC / Cmax: human, plasma, oral, 100 mg, 100 mg once daily for 12 weeks
# Description: Individual empirical Bayes estimates PK parameters from the final model were used to predict the steady state exposure of yimitasvir. The simulated dosing regimen was yimitasvir 100 mg once daily for 12 consecutive weeks. […] The steady state exposure was calculated using PK parameters with incorporation of the isolated effect from the covariate and with other unaffected PK parameters fixed to the typical value.
# [9] = dogs; cited from earlier work
# [10] = high-fat meal, food effect study, ref Zhao et al., 2019
# [11] = in the evening after dinner more than 4 h
structure (smiles),measurement,setting,value
COC(=O)NC(C(=O)N1CCCC1c1ncc(-c2ccc(-c3ccc(-c4ccc5nc(C6CCCN6C(=O)C(NC(=O)OC)C(C)C)[nH]c5c4)c4c3C3CCC4C3)cc2)[nH]1)C(C)C (centres unmarked) [yimitasvir],Metabolism in hepatic microsomes,[1],No metabolism
same,Inhibition of CYP2C9,CYP 2C9,does not inhibit
same,Induction of CYP3A4,CYP3A4,may be a weak inducer
same,Metabolism in hepatic microsomes,[2],No metabolism
same,Inhibition of CYP3A4,CYP 3A4,does not inhibit
same,Decrease in AUC,[3]; [10],~50%
same,Decrease in Cmax,[3]; [10],~63%
same,Tmax,"[3]; high-fat meal, ref Zhao et al., 2019",5 to 12 h
same,Terminal half-life (t1/2),"[3]; human, in vivo",13.4 to 19.7 h
same,Dose proportionality of exposure,"[3]; multiple ascending dose study, 100–400 mg once daily for seven days",less than dose-proportional
same,Steady state achieved,[3]; once daily dosing regimen,≤ 5 days
same,Accumulation ratio,[3]; once daily dosing,1.32–1.34
same,Major route of elimination,"[3]; ref Zhao et al., 2019",fecal excretion of parent drug
same,Dose proportionality of AUC and Cmax,"[3]; single ascending dose study, healthy volunteers, ref Zhao et al., 2019",increased less than proportionally
same,Recovered in urine as the parent drug,"[3]; through 7 days post-dose, ref Zhao et al., 2019",Less than 0.04%
same,P-gp inhibition,P-glycoprotein (P-gp),inhibitor
same,P-gp substrate,P-glycoprotein (P-gp),substrate
same,Metabolism in hepatic microsomes,[4],No metabolism
same,Inhibition of CYP2C8,[5],weak inhibitor
same,Metabolism in hepatic microsomes,[6],No metabolism
same,Inhibition of CYP1A2,CYP 1A2,does not inhibit
same,Dose proportionality of exposure,[7]; 30 to 200 mg administered during the night (4 h after dinner),near dose-proportional increase in exposure
same,Median time to peak concentration (Tmax),[7]; evening after dinner for more than 4 h,4 to 12 h
same,Inhibition of CYP2B6,CYP 2B6,does not inhibit
same,Inhibition of CYP2C19,CYP 2C19,does not inhibit
same,Bound to human plasma proteins,human plasma proteins,79.2–86.6%
same,"Decrease in Cmax,ss","[8]; after a high-fat meal, model simulated",58.9%
same,Magnitude of ALT on the steady-state exposure,[8]; healthy volunteers with extreme ALT values (5th and 95th percentiles) relative to typical,~30%
same,AUC,"[8]; empirical Bayes estimates, lower end of range, read-out: AUCss, 5th percentile of the population",3260 ng·h/mL
same,AUC,"[8]; empirical Bayes estimates, upper end of range, read-out: AUCss, 95th percentile of the population",17400 ng·h/mL
same,Cmax,"[8]; lower end of range, read-out: Cmax,ss, 5th percentile of the population",182 ng/mL
same,Cmax,"[8]; upper end of range, read-out: Cmax,ss, 95th percentile of the population",1270 ng/mL
same,Decrease in AUCss,[8]; [11],28.9%
same,"Decrease in Cmax,ss",[8]; [11],46.1%
same,"Decrease in Ctrough,ss",[8]; [11],10.0%
same,"Steady state exposures (AUCss, Ctrough,ss, Cmax,ss) higher in female than male subjects",[8]; in vivo,15.1–54.0%
same,AUC,"[8]; male, typical subject: male, healthy volunteer, fasted 10 h, ALT=31.6 IU l^-1, read-out: AUCss, base",7250 ng·h/mL
same,Cmax,"[8]; male, typical subject: male, healthy volunteer, fasted 10 h, ALT=31.6 IU l^-1, read-out: Cmax,ss, base",540 ng/mL
same,Difference in exposures between patients and healthy volunteers,[8]; steady state,no difference in exposures
same,"Decrease in Ctrough,ss",[8]; with a high-fat meal,3.52%
same,Metabolism in hepatic microsomes,[9],No metabolism
